Data published in US8648116B2, “Derivatives of N-(arylamino) sulfonamides including polymorphs as inhibitors of MEK as well as compositions, methods of use and methods for preparing the same” (Ardea Biosciences, Inc., priority 2005, dated 2014).
Where “and” joins values, the source holds several entries; their conditions need not be identical. Equal entries are not always repeated. Where two headings read alike, the source gives them in different places.

Tests used:
[1] = test system: orthotopic HT-29 human colorectal adenocarcinoma; experiment: Growth response of orthotopic HT-29 colon tumors in nude mice; format: in vivo, BALB/c nu/nu mice; conditions: for Caecum Weight / Tumour Weight: individual animals; for Average Caecum Weight / Average Tumour Weight: mice surviving to final day
Method: (§1) Female BALB/c nu/nu mice (University of Adelaide, Waite Campus, SA, Australia), aged 7-12 weeks, with a body weight range: of 16.58-25.39 g (mean 21.52 g) were used for the study. The mice were divided into 6 Study groups (4 treatment groups and 2 control groups) as follows: • Number of Mice per Group: 10 in Groups 1 to 5 inclusive • 9 in ‘Take-Rate’ Control Group (Group 6)
HT-29 human colorectal adenocarcinoma cells (Passage 4 from working stock VP-Stock 325) were cultured in RPMI1640 cell culture medium, which was supplemented with 10% FBS and penicillin-streptomycin (501 U/mL final concentration). The cells were harvested by trypsinisation, washed twice in HBSS and counted. The cells were then resuspended in HESS and adjusted to a final volume containing 2×10^8 cells/mL. Prior to inoculation, the incision site was liberally swabbed with alcohol and an incision made through the abdominal wall to expose the caecum wall. The needle was introduced through the surface of the caecum wall where 5 μL of cells (1×10^6 cells) were discharged.
A stock solution was prepared weekly and stored at 4° C. Dosing solutions were prepared on each day of administration.
Caecum and tumor wet weight were measured when each were excised post-mortem on the termination day of the study. At the termination of the study, the caecum was excised from all mice in each study group and weighed with the tumors intact. The tumors were then excised from the caecum and weighed.
A two-sample t-test was used to determine the significance in body weight change within a treatment group between Day 0 and the termination day of the study. […] In these groups, a two-sample t-test was used to determine the significance in body weight change within a treatment group between Day 0 and the final treatment day of the study, and between the last treatment day and the termination day of the study.
(§2) A One-Way Analysis of Variance (ANOVA) (All Pairwise Multiple Comparison Procedure and Multiple Comparison versus Control Group) was performed on the caecum weight and tumor weight data at the end of the study.

[2] = Plasma concentrations in mice (Example 94F); format: in vivo, nu/nu mice; conditions: for Cmin / Cmin Free Fraction / AUC / Cmax: A375-bearing nu/nu mice; for AUC / Cmax: female, nu/nu, mouse, plasma, po
rat hepatocytes = experiment: Primary hepatocyte toxicity (AK release, ATP, 48 hr); format: cell-based; conditions: for AK release (% Cell Survival) Hepatocytes Rat / ATP (% Cell Survival) Hepatocytes Rat: 48 hr
Method: Cryopreserved rat hepatocytes were obtained from CellzDirect (Austin, Tex.) and plated on collagen coated 96-well plates according to manufacturer's instructions. Drug was added 4 hr after plating (final DMSO concentration 0.5%).
(§3) After 48 hr, supernatant AK levels were determined using Toxilight, and cellular ATP levels were determined using CellTiterGlo. Full kill values were determined using 15 μM VRX-14686.

A375 cells = experiment: Anchorage-independent growth inhibition (MTS, 7 days); format: cell-based, human
[3] = test system: orthotopic Hep3B2.1-7 human hepatic carcinoma; experiment: Growth response of orthotopic Hep3B tumors in nude mice; format: in vivo, BALB/c nu/nu mice
Method: as §1, with “10-14” for “7-12”, “19.1-29.94” for “16.58-25.39”, “22.95” for “21.52”, “15” for “9”
Hep3B human hepatic carcinoma cells (Passage 2 from working stock VP-Stock 353) were cultured in RPMI1640 cell culture medium, which was supplemented with 10% FBS and penicillin-streptomycin (501 U/mL final concentration). The cells were harvested by trypsinisation, washed twice in HBSS and counted. The cells were then resuspended in HBSS:Matrigel (1:1, v/v) and adjusted to a final volume containing 1×10^8 cells/mL. Prior to inoculation, the incision site was liberally swabbed with alcohol and an incision made through the abdominal wall to expose the liver. The needle was introduced through the surface of the liver where 10 μL of cells (1×10^6 cells) were discharged. The needle was held in this position for approximately 30 seconds to allow the Matrigel® to polymerize in order to avoid leakage of tumor cells into the abdominal cavity.
Treatment commenced 14 days post-inoculation. On Day 7 of the study (21 days post-inoculation), all mice from the ‘Take-Rate’ control group were culled and the livers visually assessed for the presence of tumors.
A stock solution was prepared weekly and stored at 4° C. Dosing solutions were prepared on each day of administration. […] The compound was administered at doses of 2, 10 and 50 mg/kg.
Liver and tumor wet weight were measured when each were excised post-mortem on the termination day of the study. At the termination of the study, livers were excised from all mice in each study group and weighed. The number of visible tumors, if present, was counted. These tumors were removed from the liver and weighed.
as §2, with “liver” for “the caecum”, “study. […] The same statistical analyses were performed on the data for the tumor-bearing mice in the study.” for “study.”

HT29 colon cells = experiment: Anchorage-dependent growth inhibition (CellTiterGlo/ATP, 48 hr)
Method: Cells were maintained at 37° C., 5% CO2, and 100% humidity. Colo205 cells were maintained in RPMI supplemented with 10% fetal bovine serum, glutamine (2 mM), penicillin (100 U/ml), and streptomycin (100 μg/ml). For growth inhibition experiments, cells were plated in white 384-well microplates at 1000 cells/20 dwell. After 24 hr, 5 μl of a 5× drug stock solution was added. All drugs were initially prepared as 200× stocks in DMSO, such that final DMSO concentration was 0.5%. Cells were incubated for 48 hr at 37° C. and ATP levels were determined using CellTiterGlo (Promega, Madison, Wis.). […] Non-linear curve-fitting was performed using GraphPad Prism 4 (GraphPad Software, San Diego, Calif.).

human hepatocytes = experiment: Primary hepatocyte toxicity (AK release, ATP, 48 hr); format: cell-based
Method: Plated human hepatocytes were obtained from CellzDirect and processed according to manufacturer's instructions.
as §3

A375 melanoma cells = experiment: Anchorage-dependent growth inhibition (CellTiterGlo/ATP, 48 hr); format: cell-based, human
[4] = oral, column 1, no head (b1249 order: 50 mg/kg QD)
[5] = oral, column 2, no head (b1249 order: 25 mg/kg BID)
[6] = oral, column 3, no head (b1249 order: second 50 mg/kg QD)
[7] = oral, column 4, no head (b1249 order: 12.5 mg/kg BID)
[8] = 50 mg/kg, oral, column 1, no head (b1249 order: 50 mg/kg QD)
[9] = 50 mg/kg, oral, column 3, no head (b1249 order: second 50 mg/kg QD)
[10] = Compound A 2 mg/kg p.o. once daily Day 0 to 18, tumor-bearing mice
[11] = Compound A 10 mg/kg p.o. once daily Day 0 to 18, tumor-bearing mice
[12] = Compound A 50 mg/kg p.o. once daily Day 0 to 18, tumor-bearing mice

## COc1cc(F)c(F)c(Nc2ccc(I)cc2F)c1NS(=O)(=O)C1(C[C@H](O)CO)CC1
[1]; 10 mg/kg p.o.
  HT-29 tumor and caecum weight, trend: reduction
[1]; 2, 10 and 50 mg/kg p.o.
  average caecum and tumor weights vs Vehicle Control: no significant difference
[2]; mouse efficacy model, typical range
  half-life: 2 to 3 h
Rat hepatocytes; rat hepatocytes
  cytotoxicity: little cytotoxicity
A375 cells; A375, anchorage independent, read-out: Mean GI50
  GI50: 84 nM
A375 cells; A375 cells, read-out: GI50, anchorage independent growth (FIG. 12B)
  GI50: 22 nM
[3]; 2, 10 and 50 mg/kg p.o. once daily
  liver and tumor weight: dose-dependent trend in the decrease
[3]; tumor-bearing mice, 10 mg/kg p.o. once daily
  average weight of the tumors vs Vehicle Control: significantly different
[3]; tumor-bearing mice, 50 mg/kg p.o. once daily
  average weight of the tumors vs Vehicle Control: significantly different
[3]; tumor-bearing mice, 50 mg/kg p.o. once daily, p<0.05
  average weight of the liver vs Vehicle Control: significantly different
HT29 colon cells; read-out: Mean GI50, HT29, 48 hr, ATP content, mean of at least three experiments
  GI50: 70 nM
Human hepatocytes; freshly plated primary human hepatocytes, 30 μM, 48 hr
  survival: 81%
Human hepatocytes; primary normal human hepatocytes
  cytotoxicity: little cytotoxicity
A375 melanoma cells; A375, 48 hr, ATP content, mean of at least three experiments, read-out: Mean GI50
  GI50: 71 nM
A375 melanoma cells; A375, separate study, 48 hr, ATP content, read-out: GI50
  GI50: 56 nM
A375 melanoma cells; A375 cells, 1 uM, 48 hr
  ATP, Cell viability, % Control: 27%

## COc1cc(F)c(F)c(Nc2ccc(I)cc2F)c1NS(=O)(=O)C1(C[C@H](O)CO)CC1 [Compound A]
[1]; Compound A 2 mg/kg p.o. once daily Day 0 to 9
  Survival Number (No. Alive/Total): 4/10
[1]; Compound A 2 mg/kg, 2 mg/kg
  Caecum Weight: 0.347 g and 0.170 g and 0.150 g and 0.205 g and 0.377 g and 0.233 g and 0.251 g and 0.322 g
  Tumour Weight: 0.001 g (3×) and 0.000 g and 0.005 g (2×) and 0.122 g and 0.003 g
[1]; Compound A 2 mg/kg
  Average Caecum Weight: 0.296 g
  Average Tumour Weight: 0.033 g
[1]; Compound A 10 mg/kg, 10 mg/kg
  Caecum Weight: 0.287 g and 0.198 g and 0.258 g and 0.111 g and 0.263 g and 0.237 g and 0.234 g and 0.289 g and 0.320 g and 0.251 g
  Tumour Weight: 0.000 g (3×) and 0.257 g and 0.008 g and 0.422 g and 0.001 g and 0.014 g and 0.004 g and 0.100 g
[1]; Compound A 10 mg/kg
  Average Caecum Weight: 0.244 g
  Average Tumour Weight: 0.078 g
[1]; Compound A 50 mg/kg, 50 mg/kg
  Caecum Weight: 0.230 g and 0.254 g and 0.238 g and 0.201 g and 0.337 g and 0.169 g and 0.328 g and 0.217 g and 0.312 g and 0.463 g
  Tumour Weight: 0.002 g (2×) and 0.000 g and 0.004 g and 0.166 g and 0.655 g and 0.001 g (3×) and 0.026 g
[1]; Compound A 50 mg/kg
  Average Caecum Weight: 0.290 g
  Average Tumour Weight: 0.122 g
[2]; [4]
  Cmin: 60 ng/mL
  Cmin Free Fraction: 0.117 ng/mL
[2]; [5]
  Cmin: 1240 ng/mL
  Cmin Free Fraction: 2.48 ng/mL
[2]; [6]
  Cmin: 30 ng/mL
  Cmin Free Fraction: 0.059 ng/mL
[2]; [7]
  Cmin: 490 ng/mL
  Cmin Free Fraction: 0.986 ng/mL
[2]; 12.5 mg/kg
  AUC: 78000 ng·h/mL
  Cmax: 7800 ng/mL
[2]; 25 mg/kg
  AUC: 117000 ng·h/mL
  Cmax: 10200 ng/mL
[2]; [8]
  AUC: 132000 ng·h/mL
  Cmax: 23800 ng/mL
[2]; [9]
  AUC: 66500 ng·h/mL
  Cmax: 11900 ng/mL
Rat hepatocytes; Compound A 1.1 (μM)
  AK release (% Cell Survival) Hepatocytes Rat: 96%
  ATP (% Cell Survival) Hepatocytes Rat: 114%
Rat hepatocytes; Compound A 3.3 (μM)
  AK release (% Cell Survival) Hepatocytes Rat: 97%
  ATP (% Cell Survival) Hepatocytes Rat: 87%
Rat hepatocytes; Compound A 10.0 (μM)
  AK release (% Cell Survival) Hepatocytes Rat: 93%
  ATP (% Cell Survival) Hepatocytes Rat: 72%
Rat hepatocytes; Compound A 30.0 (μM)
  AK release (% Cell Survival) Hepatocytes Rat: 91%
  ATP (% Cell Survival) Hepatocytes Rat: 57%
A375 cells; Homo sapiens, A-375, 168 h, A375 Melanoma, BRAF V600E, 0.15% agarose, read-out: Anchorage-Independent GI50 (nM ± sd)
  GI50: 68 ± 34 nM
[3]; Compound A 2 mg/kg p.o. once daily Day 0 to 18
  No. of Mice with Tumors (out of 10): 6
[3]; [10]
  Average Liver Weight: 2.775 g
  Average Tumor Weight: 1.776 g
[3]; Compound A 10 mg/kg p.o. once daily Day 0 to 18
  No. of Mice with Tumors (out of 10): 7
[3]; [11]
  Average Liver Weight: 2.551 g
  Average Tumor Weight: 1.407 g
[3]; Compound A 50 mg/kg p.o. once daily Day 0 to 18
  No. of Mice with Tumors (out of 10): 4
[3]; [12]
  Average Liver Weight: 1.677 g
  Average Tumor Weight: 0.624 g
HT29 colon cells; Homo sapiens, HT-29, 48 h, read-out: Anchorage-Dependent GI50 (nM ± sd)
  GI50: 70 ± 12 nM
Human hepatocytes; Compound A 1.1 (μM), 48 hr
  AK release (% Cell Survival) Hepatocytes Human: 92%
  ATP (% Cell Survival) Hepatocytes Human: 108%
Human hepatocytes; Compound A 3.3 (μM), 48 hr
  AK release (% Cell Survival) Hepatocytes Human: 102%
  ATP (% Cell Survival) Hepatocytes Human: 104%
Human hepatocytes; Compound A 10.0 (μM), 48 hr
  AK release (% Cell Survival) Hepatocytes Human: 112%
  ATP (% Cell Survival) Hepatocytes Human: 107%
Human hepatocytes; Compound A 30.0 (μM), 48 hr
  AK release (% Cell Survival) Hepatocytes Human: 109%
  ATP (% Cell Survival) Hepatocytes Human: 81%
A375 melanoma cells; Homo sapiens, A-375, A375 Melanoma, BRAF V600E, 48 hr, CellTiterGlo, read-out: Anchorage-Dependent GI50 (nM ± sd)
  GI50: 67 ± 12 nM
